Laboratory results published in article PMC5929447 (Oncotarget, 2018).
Like-named read-outs stand apart in the source and are kept apart here.

Assays:
[1] = test system: BCL-2-dependent FL5.12 cells; test: Apoptosis (annexin V/PI) in FL5.12 cells expressing BCL-2 upon IL-3 withdrawal; format: cell-based, murine; settings: 24 h upon IL-3 withdrawal
[2] = test system: primary Chronic Lymphocytic Leukemia cells; test: Apoptosis (annexin V/PI flow cytometry) in primary CLL cells; format: cell-based; settings: Homo sapiens, CLL cell, 4 h
Experimental: Peripheral blood samples from CLL patients were obtained with informed patient consent and local ethical committee approval (UHL-09723). […] Interphase fluorescence in situ hybridization (FISH) was performed for detection of 17p13 deletion. Mantle cell lymphoma (MCL) primary cells were obtained after informed consent from MCL patients treated at the department of clinical hematology from the University Hospital of Nantes, France. Peripheral MCL cells from blood or pleural effusion, were purified after Ficoll-Hypaque separation with immuno-magnetic anti-CD19 beads (Miltenyi, Paris, France). Primary cells were cultured in RPMI-1640 supplemented with 10% FCS and 2 mM glutamine. Human platelets were isolated from citrate blood donated by healthy volunteers. Washed platelets were cultured in Hepes-buffered saline (HBS, 10 mM Hepes, 150 mM NaCl, 5 mM KCl, 1 mM MgSO4, pH 7.4). […] EC50 values were calculated using GraphPadPrism (non-linear fit, sigmoidal dose response, variable slope). […] Cell death was assessed in the CD19+ primary MCL cells by annexinV-FITC staining combined with an analysis of altered cellular morphology (lower FCS). Fluorescence was analyzed on FACSCalibur.

BFL-1 = target: T1, BFL-1 (Homo sapiens, UniProt Q16548); test: Fluorescence polarization (FP) with Fluorescein-PUMA, BFL-1
T1 sequence (Q16548 1-175): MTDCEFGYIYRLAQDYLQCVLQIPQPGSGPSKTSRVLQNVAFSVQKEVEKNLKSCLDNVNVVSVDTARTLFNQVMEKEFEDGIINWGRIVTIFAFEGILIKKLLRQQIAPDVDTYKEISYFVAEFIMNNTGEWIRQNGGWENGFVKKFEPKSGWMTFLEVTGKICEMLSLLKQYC
Experimental: Final concentrations of MCL-1, BFL-1, BCL-2 and BCL-XL proteins were 10, 10, 10 and 20 nM respectively. The assay plates were incubated for 2 hours at room temperature and the FP was measured on a Synergy 2 reader (Ex. 528 nm, Em. 640 nm, Cut-off 510 nm). The binding of increasing doses of compound was expressed as a percentage reduction in mP compared to the window established between ‘DMSO only’ and ‘total inhibition’ control (30 μM PUMA). […] The KI was subsequently calculated as previously described [42].

H146 cell line = test: CellTiter-Glo cell viability, H146; format: cell-based; settings: Homo sapiens, NCI-H146; 72 h of treatment
Experimental: Cells were seeded into 96-well plates and treated at 8 points with 1:2 serial dilution of compounds. Cell viability was assessed and assayed for viability using CellTiter-Glo reagent (Promega) following the manufacturer's instructions. Plates were read using Tecan luminescence plate reader. Results were normalized to the viability of cells without compounds (control wells). The IC50 values were calculated using nonlinear regression algorithms in XCell software.

[3] = test system: BCL-XL-dependent FL5.12 cells; test: Apoptosis (annexin V/PI) in FL5.12 cells expressing BCL-XL upon IL-3 withdrawal; settings: 24 h upon IL-3 withdrawal
[4] = test system: isolated platelets from healthy volunteers; test: Apoptosis (annexin V) in isolated platelets; format: cell-based; settings: Homo sapiens, Platelet; 4 healthy donors, 3 h; read-out: EC50 apoptosis (PS+) in isolated platelets
Experimental: Peripheral blood samples from CLL patients were obtained with informed patient consent and local ethical committee approval (UHL-09723). […] Interphase fluorescence in situ hybridization (FISH) was performed for detection of 17p13 deletion. Mantle cell lymphoma (MCL) primary cells were obtained after informed consent from MCL patients treated at the department of clinical hematology from the University Hospital of Nantes, France. Peripheral MCL cells from blood or pleural effusion, were purified after Ficoll-Hypaque separation with immuno-magnetic anti-CD19 beads (Miltenyi, Paris, France). Primary cells were cultured in RPMI-1640 supplemented with 10% FCS and 2 mM glutamine. Human platelets were isolated from citrate blood donated by healthy volunteers. Washed platelets were cultured in Hepes-buffered saline (HBS, 10 mM Hepes, 150 mM NaCl, 5 mM KCl, 1 mM MgSO4, pH 7.4).
EC50 values were calculated using GraphPadPrism (non-linear fit, sigmoidal dose response, variable slope). […] Cell death was assessed in the CD19+ primary MCL cells by annexinV-FITC staining combined with an analysis of altered cellular morphology (lower FCS). Fluorescence was analyzed on FACSCalibur.

[5] = Body weight in Toledo-bearing mice; format: in vivo; settings: doses up to 300 mg/kg, oral five times a week for 3 weeks
Experimental: For each experiment, female SCID/beige mice were implanted subcutaneously (right axillary region) with 3 × 10^6 Toledo or RS4;11 (1 × 10^6 cells for efficacy studies and 1 × 10^7 cells for pharmacodynamics studies) suspended in 1:1 mixture of cold DPBS and Matrigel™ in a total volume of 100 μl. Body weights were recorded and tumors were measured with digital calipers twice to three times a week. Tumor volume was calculated using the formula: length × width^2/2. Percent changes in body weights was calculated as (BWcurrent - BWinitial)/(BWinitial) × 100. Data is presented as percent body weight change from the day of treatment initiation.

BCL-2/BAX complex = BCL-2/BAX complex (Homo sapiens, UniProt P10415); test: Co-immunoprecipitation in RS4;11 cells; format: cell-based; settings: 2 h, increasing concentrations
Sequence of BCL-2/BAX complex (P10415 whole entry, one chain of several): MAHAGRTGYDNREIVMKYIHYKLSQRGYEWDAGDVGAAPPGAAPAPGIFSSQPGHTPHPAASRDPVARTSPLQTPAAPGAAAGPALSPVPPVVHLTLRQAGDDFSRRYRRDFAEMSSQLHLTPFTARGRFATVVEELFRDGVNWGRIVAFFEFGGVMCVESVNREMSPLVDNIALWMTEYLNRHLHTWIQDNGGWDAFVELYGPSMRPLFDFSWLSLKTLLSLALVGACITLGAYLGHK

platelets = test: Platelet counts in RS4;11-bearing mice; format: in vivo; settings: 25 and 100 mg/kg single oral dose, 16 h post dosing
Experimental: When tumors reached approximately 200 mm^3 for efficacy studies or 300 mm^3 for pharmacodynamic studies, mice were randomized. […] Mice were treated via oral gavage at 10 ml/kg with the doses and schedules described in the figure.
For pharmacodynamic studies, blood and tumors were removed 16 h post dosing and immediately snap-frozen. Total proteins were extracted from the tumors and caspase-3 activity was assessed in triplicate using CaspACE® Assay System (Promega). Platelet cell counts were determined 16 hours post dosing using Coulter AcT diff (Beckman).

EC50 ([2]; 7 patients, 4 hours of treatment, read-out: EC50 apoptosis in primary CLL cells, range over patients): 0.0044 to 0.0472 µM
EC50 ([2]; read-out: EC50 S55746 primary CLL cells, patient CLL1, p17 del No, 4 h): 0.0472 µM
EC50 ([2]; read-out: EC50 S55746 primary CLL cells, patient CLL2, p17 del No, 4 h): 0.0138 µM
EC50 ([2]; read-out: EC50 S55746 primary CLL cells, patient CLL3, p17 del Yes, 4 h): 0.0137 µM
EC50 ([2]; read-out: EC50 S55746 primary CLL cells, patient CLL4, p17 del No, 4 h): 0.012 µM
EC50 ([2]; read-out: EC50 S55746 primary CLL cells, patient CLL5, p17 del No, 4 h): 0.0099 µM
EC50 ([2]; read-out: EC50 S55746 primary CLL cells, patient CLL6, p17 del Yes, 4 h): 0.0078 µM
EC50 ([2]; read-out: EC50 S55746 primary CLL cells, patient CLL7, p17 del No, 4 h): 0.0044 µM
binding to BFL-1 (BFL-1; FP): No significant binding
FP_BFL-1, % of inhibition at the maximal tested concentration (BFL-1; at 5E-06 M): 7.4%@5E-06
IC50 (H146 cell line): 1.7 µM
platelet counts in vivo (platelets): did not induce platelet loss
SMILES: O=C(c1cc(-c2cc3c(cc2C(=O)N2Cc4ccccc4C[C@H]2CN2CCOCC2)OCO3)n2c1CCCC2)N(c1ccccc1)c1ccc(O)cc1 [S55746]
apoptosis induction (PS+ cells) in BCL-2-dependent FL5.12 cells [1]: strongly induce apoptosis
apoptosis induction (PS+ cells) in BCL-XL-dependent FL5.12 cells [3]: minor effect
EC50 [4]: > 3 µM
body weight compared to the vehicle control group [5]: did not significantly differ
disruption of the BCL-2/BAX complex in RS4;11 cells (BCL-2/BAX complex): concentration-dependent disruption of the BCL-2/BAX complex
